Measurements: ChEMBL document CHEMBL4359816, “Discovery and Optimization of Quinolinone Derivatives as Potent, Selective, and Orally Bioavailable Mutant Isocitrate Dehydrogenase 1 (mIDH1) Inhibitors” (J Med Chem, 2019)

What was measured:
Cytochrome P450 3A4 [1] = biological target: T1, Cytochrome P450 3A4 (Homo sapiens, UniProt P08684); assay: Time dependent inhibition of CYP3A4 (unknown origin) at <5 uM pre-incubated for 30 mins followed by midazolam substrate addition in presence of NADPH; type: ADME
T1 sequence (P08684 whole entry): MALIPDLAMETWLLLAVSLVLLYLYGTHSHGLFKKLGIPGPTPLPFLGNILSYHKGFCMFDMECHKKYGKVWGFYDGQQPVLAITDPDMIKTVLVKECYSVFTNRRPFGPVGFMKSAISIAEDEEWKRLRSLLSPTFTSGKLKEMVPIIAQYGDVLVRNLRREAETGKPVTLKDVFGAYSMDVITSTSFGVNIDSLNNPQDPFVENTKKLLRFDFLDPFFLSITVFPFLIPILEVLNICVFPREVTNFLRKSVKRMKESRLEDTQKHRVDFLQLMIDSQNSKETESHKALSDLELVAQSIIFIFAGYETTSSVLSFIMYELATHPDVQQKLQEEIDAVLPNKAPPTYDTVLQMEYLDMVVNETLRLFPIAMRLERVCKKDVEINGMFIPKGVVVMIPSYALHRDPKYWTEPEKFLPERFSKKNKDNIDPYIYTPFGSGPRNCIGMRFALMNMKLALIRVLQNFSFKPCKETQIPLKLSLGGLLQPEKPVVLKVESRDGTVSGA

[2] = Apparent permeability from apical side to basolateral side in MDCK cells; type: ADME, cell-based, Canis lupus familiaris; details: dog
[3] = biological target: Isocitrate dehydrogenase [NADP] cytoplasmic (Homo sapiens, UniProt O75874, R132S); assay: Inhibition of human Myc-DDK-tagged IDH1 R132S mutant expressed in human U87MG cells assessed as reduction in 2-HG levels after 24 hrs by RapidFire high-throughput mass spectrometry assay; type: cell-based
Isocitrate dehydrogenase [NADP] cytoplasmic (Homo sapiens, UniProt O75874, R132S), sequence (O75874 2-414 R132S limits assumed): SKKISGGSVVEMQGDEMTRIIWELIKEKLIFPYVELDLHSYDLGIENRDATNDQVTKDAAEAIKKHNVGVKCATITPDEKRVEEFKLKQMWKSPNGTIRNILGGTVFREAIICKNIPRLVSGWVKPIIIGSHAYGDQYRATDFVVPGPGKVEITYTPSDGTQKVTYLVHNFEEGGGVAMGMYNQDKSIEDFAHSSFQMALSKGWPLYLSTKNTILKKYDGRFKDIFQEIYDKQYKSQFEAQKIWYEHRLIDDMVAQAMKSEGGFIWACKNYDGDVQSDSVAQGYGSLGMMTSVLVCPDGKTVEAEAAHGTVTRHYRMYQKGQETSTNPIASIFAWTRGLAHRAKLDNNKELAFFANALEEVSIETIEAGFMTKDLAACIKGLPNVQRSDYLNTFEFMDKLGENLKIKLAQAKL

[4] = Protein binding in mouse plasma; type: ADME, cell-free; details: read-out: PPB (converted)
Cytochrome P450 3A4 [5] = biological target: T1, Cytochrome P450 3A4; assay: Time dependent inhibition of CYP3A4 (unknown origin) at <5 uM using testosterone as substrate; type: ADME
[6] = Clearance in rat at 1 mg/kg, iv or 5 mg/kg, po; type: ADME, organism-based; details: in vivo
[7] = Apparent permeability of the compound across apical side to basolateral side in human Caco2 cells; type: ADME, cell-based; details: Caco-2
Cytochrome P450 3A4 [8] = biological target: T1, Cytochrome P450 3A4; assay: Time dependent inhibition of CYP3A4 (unknown origin) at <5 uM pre-incubated for 30 mins followed by testosterone substrate addition in absence of NADPH; type: ADME
[9] = Oral bioavailability in rat at 5 mg/kg; type: ADME, organism-based; details: in vivo
[10] = biological target: T2, Isocitrate dehydrogenase [NADP] cytoplasmic (Homo sapiens, UniProt O75874, R132C); assay: Inhibition of human Myc-DDK-tagged IDH1 R132C mutant assessed as reduction in NADPH consumption pre-incubated for 15 mins followed by alpha-ketoglutarate substrate and NADPH addition after 45 mins by diaphorase and resazurin dye based assay
T2 sequence (O75874 2-414 R132C limits assumed): as the sequence (O75874 2-414 R132S limits assumed) above, with S131C counted along it

[11] = Intrinsic clearance in human hepatocytes; type: ADME, cell-based, Hepatocyte; details: read-out: CLH
[12] = biological target: ATP-dependent translocase ABCB1 (Homo sapiens, UniProt P08183); assay: Substrate activity at Pgp (unknown origin) assessed as net efflux ratio by measuring ratio of efflux ratio in MDCK cells harboring MDR1 (unknown origin) to efflux ratio in MDCK cells; type: ADME, cell-based
CYP2D6 = CYP2D6 (Homo sapiens, UniProt P10635); assay: Inhibition of CYP2D6 (unknown origin) at 10 uM relative to control; type: ADME
CYP2D6, sequence (P10635 whole entry): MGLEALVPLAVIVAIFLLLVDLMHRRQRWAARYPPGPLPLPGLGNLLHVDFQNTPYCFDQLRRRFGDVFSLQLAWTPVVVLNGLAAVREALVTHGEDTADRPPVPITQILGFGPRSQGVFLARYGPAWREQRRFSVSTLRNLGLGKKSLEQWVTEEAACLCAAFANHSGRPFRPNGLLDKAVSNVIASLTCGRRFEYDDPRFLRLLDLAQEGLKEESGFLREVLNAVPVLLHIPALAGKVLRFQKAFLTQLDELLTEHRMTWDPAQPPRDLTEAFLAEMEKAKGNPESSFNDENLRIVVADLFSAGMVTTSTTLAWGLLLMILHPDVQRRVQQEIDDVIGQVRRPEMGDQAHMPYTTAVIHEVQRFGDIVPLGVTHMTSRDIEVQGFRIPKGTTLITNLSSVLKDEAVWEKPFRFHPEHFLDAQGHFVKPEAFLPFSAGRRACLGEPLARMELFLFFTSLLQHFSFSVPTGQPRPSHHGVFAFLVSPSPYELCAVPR

MDR1 (P-gp) [13] = assay: Apparent permeability from apical side to basolateral side in MDCK cells harboring MDR1 (unknown origin); type: ADME, cell-based, Canis lupus familiaris; details: dog
[14] = biological target: T2, Isocitrate dehydrogenase [NADP] cytoplasmic; assay: Inhibition of IDH1 R132C mutant in human HCT116 cells assessed as reduction in 2-HG levels after 24 hrs by RapidFire high-throughput mass spectrometry assay; type: cell-based
[15] = Protein binding in mouse plasma assessed as unbound fraction; type: ADME, cell-free
[16] = biological target: Isocitrate dehydrogenase [NADP], mitochondrial (Homo sapiens, UniProt P48735, R140Q); assay: Inhibition of IDH2 R140Q mutant (unknown origin)
Isocitrate dehydrogenase [NADP], mitochondrial, sequence (P48735 40-452 R140Q limits assumed): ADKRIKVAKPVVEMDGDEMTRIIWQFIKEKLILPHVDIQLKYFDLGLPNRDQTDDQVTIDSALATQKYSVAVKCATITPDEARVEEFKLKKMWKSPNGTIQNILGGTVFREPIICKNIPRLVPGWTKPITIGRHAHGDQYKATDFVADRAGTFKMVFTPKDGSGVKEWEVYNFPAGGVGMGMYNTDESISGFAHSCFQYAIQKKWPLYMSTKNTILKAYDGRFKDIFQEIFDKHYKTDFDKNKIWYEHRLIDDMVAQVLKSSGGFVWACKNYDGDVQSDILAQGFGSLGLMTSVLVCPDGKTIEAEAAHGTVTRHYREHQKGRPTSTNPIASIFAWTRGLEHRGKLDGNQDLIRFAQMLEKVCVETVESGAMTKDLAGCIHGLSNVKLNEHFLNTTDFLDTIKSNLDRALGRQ

[17] = biological target: T2, Isocitrate dehydrogenase [NADP] cytoplasmic; assay: Inhibition of human Myc-DDK-tagged IDH1 R132C mutant expressed in human U87MG cells assessed as reduction in 2-HG levels after 24 hrs by RapidFire high-throughput mass spectrometry assay; type: cell-based
[18] = Efflux ratio of apparent permeability from basolateral side to apical side over apical side to basolateral side in MDCK cells; type: ADME, cell-based, Canis lupus familiaris; details: dog
[19] = Protein binding in rat plasma; type: ADME, cell-free; details: read-out: PPB (converted)
[20] = Efflux ratio of apparent permeability from basolateral side to apical side over apical side to basolateral side in human Caco2 cells; type: ADME, cell-based; details: Caco-2
[21] = Oral bioavailability in mouse at 5 mg/kg; type: ADME, organism-based; details: in vivo
Cytochrome P450 3A4 [22] = biological target: T1, Cytochrome P450 3A4; assay: Time dependent inhibition of CYP3A4 (unknown origin) at <5 uM pre-incubated for 30 mins followed by testosterone substrate addition in presence of NADPH; type: ADME
[23] = biological target: NET (noradrenaline transporter) (Homo sapiens, UniProt P23975); assay: Displacement of [3H]nisoxetine from recombinant human NET receptor at 10 uM after 120 mins by scintillation counting method relative to control; details: probe [3H]nisoxetine
NET (noradrenaline transporter), sequence (P23975 whole entry): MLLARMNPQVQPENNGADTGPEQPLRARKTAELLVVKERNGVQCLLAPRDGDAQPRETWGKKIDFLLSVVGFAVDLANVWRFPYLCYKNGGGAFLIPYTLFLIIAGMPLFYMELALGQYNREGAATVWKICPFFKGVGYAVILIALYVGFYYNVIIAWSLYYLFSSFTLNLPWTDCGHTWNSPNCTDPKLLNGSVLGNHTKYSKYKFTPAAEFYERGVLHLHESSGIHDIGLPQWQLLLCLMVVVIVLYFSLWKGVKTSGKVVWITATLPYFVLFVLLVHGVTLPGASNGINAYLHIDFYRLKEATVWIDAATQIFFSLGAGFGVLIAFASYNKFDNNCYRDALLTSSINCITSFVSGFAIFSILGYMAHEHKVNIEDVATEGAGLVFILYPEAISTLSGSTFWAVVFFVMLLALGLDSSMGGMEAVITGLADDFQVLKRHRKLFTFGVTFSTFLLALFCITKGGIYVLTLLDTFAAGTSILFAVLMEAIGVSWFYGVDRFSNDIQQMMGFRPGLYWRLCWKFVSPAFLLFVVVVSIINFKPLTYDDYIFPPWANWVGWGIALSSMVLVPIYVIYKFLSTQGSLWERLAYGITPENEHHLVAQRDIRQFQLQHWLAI

[24] = Half-life in dog at 0.5 mg/kg, iv; type: ADME, organism-based, Canis lupus familiaris; details: in vivo
[25] = Protein binding in human plasma; type: ADME, cell-free; details: read-out: PPB (converted)
[26] = Clearance in dog at 0.5 mg/kg, iv; type: ADME, organism-based, Canis lupus familiaris; details: in vivo
[27] = Free drug concentration in tumor of human HCT116 harboring R132C mutant xenografted in po dosed BALB/c nude mouse administered at 12 hrs intervals and measured after 4 to 24 hrs post last dose; type: ADME, organism-based, Neoplasm; details: in vivo
[28] = Free drug concentration in plasma of po dosed BALB/c nude mouse xenografted with human HCT116 harboring R132C mutant administered at 12 hrs intervals and measured after 4 to 24 hrs post last dose; type: ADME, organism-based; details: in vivo
[29] = Apparent permeability from basolateral side to apical side in MDCK cells; type: ADME, cell-based, Canis lupus familiaris; details: dog
PXR = PXR (Homo sapiens, UniProt O75469); assay: Activation of PXR (unknown origin) stably expressed in human HepG2 cells at 10 uM relative to rifampicin; type: ADME, cell-based; details: HepG2 cells stably expressing PXR, read-out: Activity
PXR, sequence (O75469 whole entry): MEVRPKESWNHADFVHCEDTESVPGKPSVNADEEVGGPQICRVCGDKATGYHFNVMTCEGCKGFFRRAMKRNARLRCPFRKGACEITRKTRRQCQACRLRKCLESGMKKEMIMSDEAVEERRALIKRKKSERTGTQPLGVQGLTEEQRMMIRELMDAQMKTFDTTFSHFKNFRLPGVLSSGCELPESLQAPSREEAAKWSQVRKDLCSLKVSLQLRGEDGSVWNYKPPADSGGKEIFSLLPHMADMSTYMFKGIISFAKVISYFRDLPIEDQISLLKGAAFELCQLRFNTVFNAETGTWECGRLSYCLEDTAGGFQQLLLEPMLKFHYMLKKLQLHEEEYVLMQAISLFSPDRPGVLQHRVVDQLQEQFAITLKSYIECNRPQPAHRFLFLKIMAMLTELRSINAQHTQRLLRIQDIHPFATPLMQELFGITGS

CYP3A4 = CYP3A4 (Homo sapiens, UniProt P08684); assay: Inhibition of CYP3A4 (unknown origin) at 10 uM relative to control; type: ADME
CYP3A4, sequence (P08684 whole entry): as the sequence (P08684 whole entry) above

[30] = Total AUC (infinity) in dog at 0.5 mg/kg, iv; type: ADME, organism-based, Canis lupus familiaris; set-up: dose 0.5 mg/kg, time AUCmax, route intravenous; details: in vivo
[31] = Half-life in human hepatocytes; type: ADME, cell-based, Hepatocyte
Mus musculus [32] = assay: In vivo inhibition of IDH1 R132C mutant in human HCT116 cells xenografted in po dosed BALB/c nude mouse assessed as reduction in tumor 2-HG level administered at 12 hrs intervals and measured up to 24 hrs post last dose by LC-MS analysis; type: functional
[33] = Cmax in rat at 1 mg/kg, iv or 5 mg/kg, po; type: ADME, organism-based; details: in vivo
CYP2C9 = CYP2C9 (Homo sapiens, UniProt P11712); assay: Inhibition of CYP2C9 (unknown origin) at 10 uM relative to control; type: ADME
CYP2C9, sequence (P11712 whole entry): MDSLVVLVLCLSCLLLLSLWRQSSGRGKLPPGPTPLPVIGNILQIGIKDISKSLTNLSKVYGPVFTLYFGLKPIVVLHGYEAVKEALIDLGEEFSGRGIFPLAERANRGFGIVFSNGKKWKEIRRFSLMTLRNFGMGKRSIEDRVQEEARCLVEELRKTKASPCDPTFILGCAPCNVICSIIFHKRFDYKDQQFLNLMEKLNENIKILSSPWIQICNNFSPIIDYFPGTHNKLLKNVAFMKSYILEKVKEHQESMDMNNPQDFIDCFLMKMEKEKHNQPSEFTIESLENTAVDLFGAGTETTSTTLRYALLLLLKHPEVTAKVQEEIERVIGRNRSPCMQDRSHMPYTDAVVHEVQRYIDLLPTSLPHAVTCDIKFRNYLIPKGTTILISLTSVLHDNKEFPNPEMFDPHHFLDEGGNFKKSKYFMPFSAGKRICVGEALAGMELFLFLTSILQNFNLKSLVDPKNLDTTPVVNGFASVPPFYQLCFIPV

[34] = Clearance in mouse at 1 mg/kg, iv or 5 mg/kg, po; type: ADME, organism-based; details: in vivo
[35] = Metabolic stability in dog liver microsomes assessed as compound remaining after 30 mins; type: ADME, Canis lupus familiaris, Microsome; details: read-out: Stability
[36] = fAUC (infinity) in mouse at 1 mg/kg, iv or 5 mg/kg, po; type: ADME, organism-based; details: in vivo
[37] = Permeability of the compound by PAMPA; type: ADME; details: read-out: permeability
[38] = Octanol/aqueous buffer partition coefficient, log D of the compound at pH 7.4; type: physicochemical
Mus musculus [39] = type: functional, BALB/c
[40] = Apparent permeability of the compound across basolateral side to apical side in human Caco2 cells; type: ADME, cell-based; details: Caco-2
[41] = biological target: Isocitrate dehydrogenase [NADP] cytoplasmic (Homo sapiens, UniProt O75874, R132G); assay: Inhibition of human Myc-DDK-tagged IDH1 R132G mutant expressed in human U87MG cells assessed as reduction in 2-HG levels after 24 hrs by RapidFire high-throughput mass spectrometry assay; type: cell-based
Isocitrate dehydrogenase [NADP] cytoplasmic (Homo sapiens, UniProt O75874, R132G), sequence (O75874 2-414 R132G limits assumed): as the sequence (O75874 2-414 R132S limits assumed) above, with S131G counted along it

MDR1 (P-gp) [42] = assay: Apparent permeability from basolateral side to apical side in MDCK cells harboring MDR1 (unknown origin); type: ADME, cell-based, Canis lupus familiaris; details: dog
[43] = biological target: Voltage-gated inwardly rectifying potassium channel KCNH2 (Homo sapiens, UniProt Q12809); assay: Inhibition of human ERG by patch clamp method
Voltage-gated inwardly rectifying potassium channel KCNH2, sequence (Q12809 whole entry): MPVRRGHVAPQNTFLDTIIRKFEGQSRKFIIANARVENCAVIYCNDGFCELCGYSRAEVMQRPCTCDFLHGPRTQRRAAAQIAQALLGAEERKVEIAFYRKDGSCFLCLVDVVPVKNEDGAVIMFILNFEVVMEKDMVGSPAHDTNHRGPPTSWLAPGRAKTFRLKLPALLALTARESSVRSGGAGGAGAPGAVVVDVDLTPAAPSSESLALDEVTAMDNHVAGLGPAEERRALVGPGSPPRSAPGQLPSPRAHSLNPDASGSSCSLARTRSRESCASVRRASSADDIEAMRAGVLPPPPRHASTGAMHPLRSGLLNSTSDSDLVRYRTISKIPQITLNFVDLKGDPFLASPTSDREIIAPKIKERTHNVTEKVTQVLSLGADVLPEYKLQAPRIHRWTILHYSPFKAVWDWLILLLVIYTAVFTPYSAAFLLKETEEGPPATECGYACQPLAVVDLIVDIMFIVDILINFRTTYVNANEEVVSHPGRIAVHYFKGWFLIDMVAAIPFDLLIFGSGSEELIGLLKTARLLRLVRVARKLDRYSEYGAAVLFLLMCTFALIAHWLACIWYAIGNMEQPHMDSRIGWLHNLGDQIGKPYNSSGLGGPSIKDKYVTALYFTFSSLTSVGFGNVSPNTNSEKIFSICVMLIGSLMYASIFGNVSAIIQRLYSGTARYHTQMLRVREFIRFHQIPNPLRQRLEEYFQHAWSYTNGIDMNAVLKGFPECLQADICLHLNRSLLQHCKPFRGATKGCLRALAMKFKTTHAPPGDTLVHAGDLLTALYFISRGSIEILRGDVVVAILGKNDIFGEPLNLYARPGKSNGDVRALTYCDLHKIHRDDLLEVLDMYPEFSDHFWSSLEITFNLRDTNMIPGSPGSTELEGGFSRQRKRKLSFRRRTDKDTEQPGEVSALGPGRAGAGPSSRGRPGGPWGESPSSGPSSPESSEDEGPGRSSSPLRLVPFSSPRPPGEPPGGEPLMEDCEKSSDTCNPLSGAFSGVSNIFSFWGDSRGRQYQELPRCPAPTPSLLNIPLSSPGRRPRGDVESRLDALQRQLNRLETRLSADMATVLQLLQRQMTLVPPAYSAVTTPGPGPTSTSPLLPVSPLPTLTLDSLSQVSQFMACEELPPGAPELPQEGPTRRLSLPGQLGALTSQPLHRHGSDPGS

With `COc1nc(N[C@@H](C)c2cc3cc(Cl)ccc3[nH]c2=O)ncc1C#N` the TDI (Cytochrome P450 3A4 [1]) was “Not Active”, the Papp A→B [2] was 12.6 ×10⁻⁶ cm/s and the IC50 [3] was 1490 nM. The fraction unbound [4] was 0.0193, the TDI (Cytochrome P450 3A4 [5]) was “Not Active” and the clearance [6] was 8.6 mL/min/kg. For the same compound, the Papp A→B [7] was 8.66 ×10⁻⁶ cm/s, the TDI (Cytochrome P450 3A4 [8]) was “Not Active” and the bioavailability [9] was 81%. For the same compound, the IC50 [10] was 130 nM, the CLint scaled [11] was 13.7 mL/min/kg and the Ratio [12] was 1.89. It also gave an inhibition at 10 µM (CYP2D6) of 10.2%, a Papp A→B (MDR1 (P-gp) [13]) of 8.35 ×10⁻⁶ cm/s and an IC50 [14] of 233 nM. It also gave a fraction unbound [15] of 0.019, an IC50 [16] of 76600 nM and an IC50 [17] of 130 nM. For the same compound, the efflux ratio [18] was 0.63, the fraction unbound [19] was 0.0203 and the efflux ratio [20] was 1. The bioavailability [21] was 130%, the TDI (Cytochrome P450 3A4 [22]) was “Not Active” and the inhibition at 2 h, 10 µM [23] was greater than 50%. It also gave a half-life [24] of 5.2 h, a fraction unbound [25] of 0.019 and a clearance [26] of 7.7 mL/min/kg. For the same compound, the “Drug uptake(free)” value [27] was “Dose-dependent effect”, the “Drug uptake(free)” value [28] was “Dose-dependent effect” and the Papp B→A [29] was 7.97 ×10⁻⁶ cm/s. For the same compound, the activity at 10 µM (PXR) was 15%, the inhibition at 10 µM (CYP3A4) was 15.4% and the AUC(0-inf) [30] was 3.3 µM·h. The half-life [31] was 4.32 h, the fIC50 (Mus musculus [32]) was 46 nM and the Cmax [33] was 3.8 µM. It also gave an inhibition at 10 µM (CYP2C9) of 13.6%, a clearance [34] of 3.3 mL/min/kg and a remaining at 0.5 h [35] of 94%. The fAUC [36] was 2.06 µM·h, the Papp [37] was 18 ×10⁻⁶ cm/s and the logD [38] was 2.68. It also gave a Ratio IC50 (Homo sapiens) of 200, a fIC50 (Mus musculus [39]) of 49 nM and a Papp B→A [40] of 8.64 ×10⁻⁶ cm/s. It also gave an IC50 [41] of 120 nM, a Papp B→A (MDR1 (P-gp) [42]) of 9.93 ×10⁻⁶ cm/s and an IC50 [43] of 3200 nM.
